Like-named read-outs stand apart in the source and are kept apart here.
Tests used:
human TRPA1 channel = target: T1, human TRPA1 channel (Homo sapiens, UniProt O75762); assay: manual patch clamp detection of TRPA1 inhibitory activity; type: cell-based; details: for IC50: HEK293 stably expressing human TRPA1, 100 μM AITC, +100 mV
T1 construct: expressed in transfected cells; host or cells: HEK293
Protocol: The HEK293 cell line stably expressing human TRPA1 channel was placed in T75 culture flask with DMEM medium containing 15 μg/mL Blasticidin S HCl, 200 μg/mL Hygromycin B and 10% FBS, and cultured in incubator at 37° C. and 5% CO2. When the cell density reached about 80%, the culture medium was removed, the residue was rinsed with phosphate buffered saline (PBS) without calcium and magnesium. 2 mL of trypsin was added to digest for 2 minutes, and 8 mL of culture medium was added to terminate the digestion. The cells were collected to 15 mL centrifuge tube and centrifuged at 800 rpm for 3 min. After the supernatant was removed, an appropriate volume of extracellular fluid was added to re-suspend the cells.
In manual patch clamp detection, HEKA system (Patch Master software) was used together with EPC-10 amplifier to record the whole cell current of TRPA1 stably transfected cell line at room temperature. intracellular fluid formulation for whole cell recording was as follows (mM): 140 CsCl, 10 HEPES, 5 EGTA, 0.1 CaCl2, 1 MgCl2 (pH 7.2, osmotic pressure 295-300 mOsm); Ca^2+-free extracellular fluid formulation for recording was as follows (mM): 140 NaCl, 5 KCl, 0.5 EGTA, 1 MgCl2, 10 Glucose, 10 HEPES (pH 7.4, osmotic pressure 300-310 mOsm). Glass microelectrode resistance used for patch clamp recording was 2-4 MΩ, the sampling frequency was 10 kHz, the filter frequency was 2.9 kHz, the cell clamp was 0 mV, and the voltage stimulation command (channel protocol) was a linear voltage from −100 mV to +100 mV for 300 ms, then restored to 0 mV clamping potential. The recording was performed every 2 s. The hTRPA1 current was induced by 100 μM AITC. To ensure the accuracy of current recording, the series resistance was used for 60% compensation during recording.
Data recording and current amplitude measurement export were completed by Patch Master software. Cells with sealing impedance lower than 500 MΩ, w were not included in the statistics. The original current data were corrected by software for leakage reduction, and the hTRPA1 current amplitude was measured at +100 mV. The compound dose-effect curve and IC50 were fitted and calculated by GraphPad Prism 5.02 (GraphPad Software, San Diego, Calif.).

[1] = Pharmacokinetic test in rat; type: in vivo; details: for bioavailability: oral, calculated on AUC(0-∞); for half-life: read-out: T½ (converted)
Protocol: A certain amount of sample was weighed and dissolved in deionized water to prepare 1 mg/mL of solution. Male SD rats were used as test animals. The dose of single intravenous (IV) injection was 2 mg/kg, and the dose of oral (PO) administration was 10 mg/kg. Each group had three rats. The rats in oral group were fasted for 10-14 hours before administration, and were fed 4 hours after administration. Animal blood collection time points were as follows: before administration, and 5 min, 15 min, 30 min, 1 h, 2 h, 4 h, 6 h, 8 h, and 24 h after administration for intravenous administration; before administration, and 15 min, 30 min, 1 h, 2 h, 4 h, 6 h, 8 h and 24 h after administration for oral administration. About 0.25 mL of blood was collected via the jugular vein from each animal, and heparin sodium was used for anticoagulation. After collecting the blood samples, the blood samples were placed on ice and centrifuged to separate the plasma (centrifugation conditions: 8000 rpm, 6 min, 4° C.). The collected plasma was stored at −80° C. before analysis. 50 μL of plasma sample was taken into 1.5 mL of centrifuge tube, 250 μL of internal standard solution was added, and the same volume of methanol rather than internal standard solution was added in the blank group. The mixture was vortexed and mixed, centrifuged at 14,000 rpm for 5 min, 200 μL of supernatant was taken into 96-well sample plate, and the LC-MS/MS was used for sample analysis. In the linear regression analysis, the peak area was taken as the y-axis and the drug concentration was taken as the x-axis. The linear relationship between the peak area ratio and the concentration was expressed by the correlation coefficient (R) obtained from the regression equation of the compound. According to the blood concentration data of the drug, the pharmacokinetic calculation software WinNonlin7.0 non-compartmental model was used to calculate the pharmacokinetic parameters of the test drug.
Internal standard working solution: a certain amount of tolbutamide internal standard stock solution with a concentration of 490,000 ng/mL was taken into a volumetric flask with a certain volume, diluted to a desired volume with methanol and mixed well to obtain the internal standard working solution with a concentration of 200 ng/mL.

[2] = tested on: ICR mice, acetic acid writhing pain model; assay: mice acetic acid writhing pain model; type: in vivo, mouse; details: for number of appearance of writhing reaction: within 30 min, saline group 49 times
Protocol: Male ICR mice, weighed 22-25 g, were fasted but allowed to drink water freely for 2 h before administration. All ICR mice were weighed and grouped randomly, and the number of animals in each group was >10. […] The test compound was IC-1 (the compound prepared in Example 9), and the administration dosages were 5 mg/kg and 10 mg/kg. […] When concave abdomen, stretched trunk and hind claw, and high buttocks appeared, one number point was recorded. […] After administration, the fewer visceral pains in the mice were, the stronger the analgesic effect of the compound was.

T1 sequence (O75762 whole entry): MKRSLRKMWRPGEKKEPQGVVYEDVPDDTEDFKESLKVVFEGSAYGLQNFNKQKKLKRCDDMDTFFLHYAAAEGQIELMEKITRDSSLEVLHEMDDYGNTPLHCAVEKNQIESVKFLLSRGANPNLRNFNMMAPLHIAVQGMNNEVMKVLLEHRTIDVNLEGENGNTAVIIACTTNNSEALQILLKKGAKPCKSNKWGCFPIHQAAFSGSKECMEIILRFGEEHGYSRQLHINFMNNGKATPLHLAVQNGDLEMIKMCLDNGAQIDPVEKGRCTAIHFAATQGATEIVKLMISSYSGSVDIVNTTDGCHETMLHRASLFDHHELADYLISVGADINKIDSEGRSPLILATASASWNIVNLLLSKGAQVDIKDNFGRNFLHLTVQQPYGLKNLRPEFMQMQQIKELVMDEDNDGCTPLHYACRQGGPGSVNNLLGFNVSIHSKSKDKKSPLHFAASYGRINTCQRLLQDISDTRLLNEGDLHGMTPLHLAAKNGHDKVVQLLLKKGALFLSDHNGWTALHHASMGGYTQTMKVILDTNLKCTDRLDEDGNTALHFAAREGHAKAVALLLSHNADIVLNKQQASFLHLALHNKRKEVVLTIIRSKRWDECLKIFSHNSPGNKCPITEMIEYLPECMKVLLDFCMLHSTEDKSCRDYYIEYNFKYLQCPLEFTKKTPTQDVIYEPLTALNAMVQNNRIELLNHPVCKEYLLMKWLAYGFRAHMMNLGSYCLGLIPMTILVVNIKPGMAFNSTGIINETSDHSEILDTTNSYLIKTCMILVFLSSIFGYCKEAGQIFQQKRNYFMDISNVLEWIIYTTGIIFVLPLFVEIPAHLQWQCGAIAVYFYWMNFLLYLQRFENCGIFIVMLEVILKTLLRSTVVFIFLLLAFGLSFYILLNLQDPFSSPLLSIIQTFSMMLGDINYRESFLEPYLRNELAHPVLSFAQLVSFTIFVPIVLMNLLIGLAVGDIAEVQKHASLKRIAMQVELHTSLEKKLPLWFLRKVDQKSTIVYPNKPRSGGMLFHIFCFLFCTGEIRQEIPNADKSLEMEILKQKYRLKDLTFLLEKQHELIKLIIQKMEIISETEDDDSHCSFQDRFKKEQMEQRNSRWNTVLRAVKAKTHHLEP

| ratio of IC50 of S configuration of duloxetine to IC50 of the compound, manual patch clamp (human TRPA1 channel; manual patch clamp) | Tmax ([1]; male, SD, plasma, IV 2 mg/kg, read-out: Tmax) [h] | Tmax ([1]; male, SD, plasma, PO 10 mg/kg, read-out: Tmax) [h] | SMILES | IC50 (human TRPA1 channel) [nM] | Tmax ([1]; PO 10 mg/kg, 10 mg/kg) [h] | bioavailability ([1]; male, SD, plasma, 10 mg/kg) [%] | AUC(0-inf) ([1]; male, SD, plasma, IV 2 mg/kg) [ng·h/mL] | Cmax ([1]; male, SD, plasma, IV 2 mg/kg) [ng/mL] | half-life ([1]; male, SD, plasma, IV 2 mg/kg) [h] | AUC(0-inf) ([1]; male, SD, plasma, PO 10 mg/kg) [ng·h/mL] | Cmax ([1]; male, SD, plasma, PO 10 mg/kg) [ng/mL] | half-life ([1]; male, SD, plasma, PO 10 mg/kg) [h] | Tmax ([1]; male, SD, plasma, iv, 2 mg/kg, IV 2 mg/kg, read-out: Tmax) [h] | Tmax ([1]; male, SD, plasma, po, 10 mg/kg, PO 10 mg/kg, read-out: Tmax) [h] | number of appearance of writhing reaction ([2]; 10 mg/kg by gavage) [times] | number of appearance of writhing reaction ([2]; 20 mg/kg by gavage) [times] | writhing number lower than in the saline control group ([2]; 5 mg/kg by gavage) [%] | number of appearance of writhing reaction ([2]; 5 mg/kg by gavage) [times] | half effective dose ([2]; acetic acid writhing, gavage) |
| --- | --- | --- | --- | --- | --- | --- | --- | --- | --- | --- | --- | --- | --- | --- | --- | --- | --- | --- | --- |
| – | – | – | CNCC[C@H](Oc1cccc2ccccc12)c1cccs1 [Duloxetine (S configuration), Duloxetine] | 4360 | 0.833 | 9.9 | 449 | 177 | 1.77 | 222 | 76 | 1.81 | 0.083 | 0.83 | 27 | 21 | – | – | – |
| 10.14 | 0.083 | 3 | CNCC[C@H](Oc1cccc2ccoc12)c1cccs1 [Compound IC-1, (S)-3-(benzofuran-7-yloxy)-N-methyl-3-(thiophen-2-yl)propyl-1-amine] | 430 | – | 179 | 449 | 170 | 2.97 | 4020 | 266 | 5.69 | – | – | 17 | – | 50 | 20 | less than 5 mg/kg |

Reference: US20220119375A1, “3-ARYLOXY-3-ARYL-PROPYLAMINE COMPOUND AND USES THEREOF” (Zhangzhou Pien Tze Huang Pharmaceutical Co., Ltd., priority 2018, published 2022)
